The nature of one data set: in vivo. The following applies: mouse, mice, intravenous route, calculated by method of Miller and Tainter, read-out: LD50 /24 hrs/kg body weight.
The test system of data set [1] is carrageenin-induced edema. The experiment in a line: Localized carrageenin-induced edema method (anti-inflammatory action). The format is in vivo. The following applies: rats, oral 100 mg/kg given 1 h before, simultaneously with, and 1 h and 2.5 h after carrageenin. As to the method: (a) Localized carrageenin-induced edema method
A 1% carrageenin solution (1 ml) is injected in the metatarsal flexor muscles of the right hind limb of rats at time 0. The animals of the treated group are additionally administered orally 100 mg/kg of the test derivative, respectively 1 hour prior to and then simultaneously with the phlogogenic agent, and then one hour and 2.5 hours thereafter. The percent anti-inflammatory activity, as a function of time, is determined by measurements effected with a ROCH micrometer at times 0, 1 hour, 2 hours, 3 hours and 5 hours after carrageenin administration.
On the technique in general: In the carrageenan paw model, swelling and tenderness develop within hours.

In data set [2] the test system is ovalbumin-induced systemic edema. As to the kind of experiment: Ovalbumin-induced systemic edema method (anti-inflammatory action). The format is in vivo. The following applies: rats, oral 100 mg/kg given 1 h before and simultaneously with ovalbumin. As to the method: (b) Ovalbumin-induced systemic edema method
Rats are administered a simultaneous intraperitoneal injection of 1 ml ovalbumin and 0.5 ml of a 1% aqueous Evans Blue solution. The animals of the treated group are additionally administered orally 100 mg/kg of the test derivative, one hour prior to ovalbumin administration and simultaneously with said ovalbumin administration. The intensity of the phenomenon thus induced is scored according to a scale from 1 to 5, according to the progress of the inflammatory syndrome. The determinations are effected after 2 hours and after 3 hours. Thus are determined the mean intensity of the edema and the percent decrease of the edema reaction.

In another data set the test system is blood plate aggregation. The experiment in a line: Inhibiting activity on blood plate aggregation (adenosine diphosphate-induced, turbidimetric assay on plasma of treated rats). The format is in vivo. The following applies: Rattus norvegicus, rats administered 100 mg/kg, read-out: percent inhibition on blood plate aggregation. As for the experimental part: 2. Inhibiting activity on blood plate aggregation
Rat plasma, prepared to contain 600,000±20,000 blood platelets per mm^3 is normally cloudy. Addition of adenosine diphosphate induces blood plate aggregation and, thus, an increase of the light transmission, a phenomenon readily measurable with a spectrophotometer. When the same test is effected with a plasma prepared from the blood of an animal which has been administered 100 mg/kg of a derivative having an inhibiting effect on blood plate aggregation, there is no aggregation of the blood plates and the serum remains cloudy. The turbidimetric assay effected with a spectrophotometer provides a measure of the inhibiting activity on blood plate aggregation of the test derivatives.

The values below come from patent US4076819A, “Thieno-pyridine derivatives and therapeutic composition containing same” (priority 1975, dated 1978).

SMILES strings stand for the structures.

Take `O=[N+]([O-])c1ccc(CN2Cc3ccsc3C(O)C2)cc1` (centres unmarked) [Derivative 1, 7-Hydroxy-5-p.nitrobenzyl-4,5,6,7-tetrahydro-thieno[3,2-c]-pyridine]: in the data set “in vivo”, the LD50 at 24 h was 90 mg/kg.

Turning to `O=C(CN1CCCC1)N1Cc2sccc2C(O)C1` (centres unmarked) [Derivative 2, 4-Hydroxy-6-pyrrolidinoacetyl-4,5,6,7-tetrahydro-thieno[2,3-c]-pyridine], the LD50 at 24 h in “in vivo” is 225 mg/kg. For the same compound, in data set [1], the “Percent anti-inflammatory activity after 1 hour” value was 35%, the “Percent anti-inflammatory activity after 2 hours” value is given as 48% and the “Percent anti-inflammatory activity after 5 hours” value was 55%. Besides, in data set [2], the “Percent decrease (of the edema reaction) After 2 hours” value was 38% and the “Percent decrease (of the edema reaction) After 3 hours” value was 44%.

Take `Cc1ccc(S(=O)(=O)N2Cc3sccc3C(O)C2)cc1` (centres unmarked) [Derivative 4, 4-Hydroxy-6-p.toluenesulfonyl-4,5,6,7-tetrahydro-thieno[2,3-c]-pyridine]: the inhibition (commonly the share of the control response that was lost under treatment) at 100 mg/kg in the data set with blood plate aggregation is 92%.

As for `O=C(Nc1ccccc1)N1Cc2sccc2C(O)C1` (centres unmarked) [Derivative 5, 4-Hydroxy-6-N-phenylcarbamoyl-4,5,6,7-tetrahydro-thieno[2,3-c]-pyridine], in data set [1], the “Percent anti-inflammatory activity after 1 hour” value is 41%, the “Percent anti-inflammatory activity after 2 hours” value came out at 50% and the “Percent anti-inflammatory activity after 5 hours” value stood at 55%. Also, in data set [2], the “Percent decrease (of the edema reaction) After 2 hours” value stood at 33% and the “Percent decrease (of the edema reaction) After 3 hours” value worked out at 43%. In addition, the inhibition at 100 mg/kg in the data set with blood plate aggregation is 89%.

`CC(=O)CCN1Cc2ccsc2C(O)C1` (centres unmarked) [Derivative 7, 7-Hydroxy-5-(3-oxo-butyl)-4,5,6,7-tetrahydro-thieno[3,2-c]-pyridine]: in the data set “in vivo”, the LD50 at 24 h is 260 mg/kg. For the same compound, in data set [1], the “Percent anti-inflammatory activity after 1 hour” value turned out to be 42%, the “Percent anti-inflammatory activity after 2 hours” value was found to be 56% and the “Percent anti-inflammatory activity after 5 hours” value is listed as 60%. In addition, in data set [2], the “Percent decrease (of the edema reaction) After 2 hours” value is listed as 41% and the “Percent decrease (of the edema reaction) After 3 hours” value came out at 52%.

As for `CC(=O)OC1CN(Cc2ccccc2Cl)Cc2ccsc21` (centres unmarked) [Derivative 8, 7-Acetoxy-5-o-chlorobenzyl-4,5,6,7-tetrahydro-thieno[3,2-c]-pyridine], the LD50 at 24 h in the data set “in vivo” was 200 mg/kg.

In the case of `CCCNC(=O)OC1CN(C)Cc2sccc21` (centres unmarked) [Derivative 9, 6-Methyl-4-N-propylcarbamoyloxy-4,5,6,7-tetrahydro-thieno-[2,3-c]-pyridine], the LD50 at 24 h in “in vivo” is 220 mg/kg. For the same compound, in the data set on blood plate aggregation, the inhibition at 100 mg/kg is 86%.

As to `CN1Cc2sccc2C(O)C1` (centres unmarked) [Derivative 10], in the data set “in vivo”, the LD50 at 24 h was 340 mg/kg.

For `CC1c2sccc2C(O)CN1C` (centres unmarked) [Derivative 11], the LD50 at 24 h in the data set “in vivo” is 220 mg/kg.

With `CC(=O)OC1CN(C)Cc2sccc21` (centres unmarked) [Derivative 12], the LD50 at 24 h in the data set “in vivo” is 260 mg/kg. Besides, in data set [1], the “Percent anti-inflammatory activity after 1 hour” value was determined as 37%, the “Percent anti-inflammatory activity after 2 hours” value amounted to 50% and the “Percent anti-inflammatory activity after 5 hours” value is reported as 58%. In data set [2], the “Percent decrease (of the edema reaction) After 2 hours” value is reported as 46% and the “Percent decrease (of the edema reaction) After 3 hours” value is 59%.

Consider `CNC(=O)OC1CN(C)Cc2sccc21` (centres unmarked) [Derivative 14], for which, in the data set “in vivo”, the LD50 at 24 h is 280 mg/kg.

Regarding `CC(=O)CCN1Cc2sccc2C(O)C1` (centres unmarked) [Derivative 16], in the data set “in vivo”, the LD50 at 24 h was 250 mg/kg.

Take `CC(=O)OC1CN(Cc2ccccc2Cl)Cc2sccc21` (centres unmarked) [Derivative 18]: in data set [1], the “Percent anti-inflammatory activity after 1 hour” value turned out to be 34%, the “Percent anti-inflammatory activity after 2 hours” value turned out to be 44% and the “Percent anti-inflammatory activity after 5 hours” value is given as 57%. In data set [2], the “Percent decrease (of the edema reaction) After 2 hours” value was 42% and the “Percent decrease (of the edema reaction) After 3 hours” value worked out at 58%. For the same compound, the inhibition at 100 mg/kg in the data set with blood plate aggregation amounted to 74%.

Consider `OC1CN(Cc2ccc(Cl)cc2)Cc2sccc21` (centres unmarked) [Derivative 20], for which the LD50 at 24 h in “in vivo” is 110 mg/kg.

In the case of `COc1ccc(CN2Cc3sccc3C(OC(C)=O)C2)cc1` (centres unmarked) [Derivative 21], in “in vivo”, the LD50 at 24 h is 245 mg/kg.

`O=[N+]([O-])c1ccccc1CN1Cc2sccc2C(O)C1` (centres unmarked) [Derivative 22]: the inhibition at 100 mg/kg in the data set on blood plate aggregation amounted to 93%.

Regarding `O=[N+]([O-])c1ccc(CN2Cc3sccc3C(O)C2)cc1` (centres unmarked) [Derivative 24], in “in vivo”, the LD50 at 24 h is 150 mg/kg.

Take `CC(=O)OC1CN(C(=O)C(Cl)Cl)Cc2sccc21` (centres unmarked) [Derivative 25]: the inhibition at 100 mg/kg with blood plate aggregation is 84%.

In the case of `COc1cc(C(=O)N2Cc3sccc3C(O)C2)cc(OC)c1OC` (centres unmarked) [Derivative 26], in data set [1], the “Percent anti-inflammatory activity after 1 hour” value was 36%, the “Percent anti-inflammatory activity after 2 hours” value came to 49% and the “Percent anti-inflammatory activity after 5 hours” value was 54%. In data set [2], the “Percent decrease (of the edema reaction) After 2 hours” value is on record as 51% and the “Percent decrease (of the edema reaction) After 3 hours” value worked out at 63%.

As to `CN1Cc2ccsc2C(O)C1` (centres unmarked) [Derivative 29], in the data set “in vivo”, the LD50 at 24 h was 350 mg/kg. In data set [1], the “Percent anti-inflammatory activity after 1 hour” value is 45%, the “Percent anti-inflammatory activity after 2 hours” value came out at 55% and the “Percent anti-inflammatory activity after 5 hours” value was found to be 61%. In addition, in data set [2], the “Percent decrease (of the edema reaction) After 2 hours” value was 49% and the “Percent decrease (of the edema reaction) After 3 hours” value is on record as 59%. Moreover, in the data set with blood plate aggregation, the inhibition at 100 mg/kg stood at 88%.
